Measurements published in PubChem BioAssay (NCI).
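Interpolation was linear, between the two tested concentrations surrounding the appropriate level; five concentrations were tested over 48 hours in 96-well plates. GI50 is the concentration that inhibits growth by half. The concentration for full growth arrest is given as TGI.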

Assays:
Experiment in all cases: inhibition of tumour cell growth, NCI panel, 48 h; in the data active = GI50 below about 0.43 µM; inactive = the rest
SF-539 CNS = test system: SF-539 CNS
COLO 205 colon = test system: COLO 205 colon
BT-549 breast = test system: BT-549 breast
UACC-257 melanoma = test system: UACC-257 melanoma
OVCAR-3 ovarian = test system: OVCAR-3 ovarian
OVCAR-5 ovarian = test system: OVCAR-5 ovarian
786-0 renal = test system: 786-0 renal
PC-3 prostate = test system: PC-3 prostate
HCC-2998 colon = test system: HCC-2998 colon
SK-MEL-5 melanoma = test system: SK-MEL-5 melanoma
SR leukemia = test system: SR leukemia
NCI-H522 lung = test system: NCI-H522 lung
MALME-3M melanoma = test system: MALME-3M melanoma
HL-60(TB) leukemia = test system: HL-60(TB) leukemia
M14 melanoma = test system: M14 melanoma
A549 NSCLC = test system: A549 NSCLC
RPMI-8226 leukemia = test system: RPMI-8226 leukemia
HCT-116 colon = test system: HCT-116 colon
UO-31 renal = test system: UO-31 renal
HT29 colon = test system: HT29 colon
SNB-75 CNS = test system: SNB-75 CNS
SF-295 CNS = test system: SF-295 CNS
MDA-MB-231 breast = test system: MDA-MB-231 breast
CCRF-CEM leukemia = test system: CCRF-CEM leukemia
CAKI-1 renal = test system: CAKI-1 renal
HCT-15 colon = test system: HCT-15 colon
SNB-19 CNS = test system: SNB-19 CNS
LOX IMVI melanoma = test system: LOX IMVI melanoma
K-562 leukemia = test system: K-562 leukemia
TK-10 renal = test system: TK-10 renal
SK-OV-3 ovarian = test system: SK-OV-3 ovarian
U251 CNS = test system: U251 CNS
HOP-62 NSCLC = test system: HOP-62 NSCLC
SK-MEL-28 melanoma = test system: SK-MEL-28 melanoma
NCI/ADR-RES ovarian = test system: NCI/ADR-RES ovarian
A498 renal = test system: A498 renal
IGROV1 ovarian = test system: IGROV1 ovarian
SF-268 CNS = test system: SF-268 CNS
OVCAR-4 ovarian = test system: OVCAR-4 ovarian
ACHN renal = test system: ACHN renal
SN12C renal = test system: SN12C renal
UACC-62 melanoma = test system: UACC-62 melanoma
RXF 393 renal = test system: RXF 393 renal
EKVX NSCLC = test system: EKVX NSCLC
MOLT-4 leukemia = test system: MOLT-4 leukemia
SW-620 colon = test system: SW-620 colon
DU-145 prostate = test system: DU-145 prostate
NCI-H226 lung = test system: NCI-H226 lung
HOP-92 NSCLC = test system: HOP-92 NSCLC
NCI-H23 lung = test system: NCI-H23 lung
OVCAR-8 ovarian = test system: OVCAR-8 ovarian
NCI-H460 lung = test system: NCI-H460 lung
MCF7 breast = test system: MCF7 breast
HS 578T breast = test system: HS 578T breast

COc1ccc(-c2oc3cc(O)cc(O)c3c(=O)c2OC)cc1O
8.66 µM: TGI (SF-295 CNS)
inactive: GI50 (SF-539 CNS) 495 nM | GI50 (COLO 205 colon) > 16.5 µM | GI50 (BT-549 breast) 850 nM | GI50 (UACC-257 melanoma) > 16.5 µM | GI50 (OVCAR-3 ovarian) 490 nM | GI50 (OVCAR-5 ovarian) 8.69 µM | GI50 (786-0 renal) 4.87 µM | GI50 (PC-3 prostate) 2740 nM | GI50 (HCC-2998 colon) 4.63 µM | GI50 (SK-MEL-5 melanoma) 724 nM | GI50 (SR leukemia) 627 nM | GI50 (NCI-H522 lung) 446 nM | GI50 (MALME-3M melanoma) > 16.5 µM | GI50 (HL-60(TB) leukemia) 445 nM | GI50 (M14 melanoma) 509 nM | GI50 (A549 NSCLC) 6.27 µM | GI50 (RPMI-8226 leukemia) 726 nM | GI50 (HCT-116 colon) 646 nM | GI50 (UO-31 renal) 1860 nM | GI50 (HT29 colon) 5.83 µM | GI50 (SF-295 CNS) 2300 nM | GI50 (MDA-MB-231 breast) 1220 nM | GI50 (CCRF-CEM leukemia) 853 nM | GI50 (CAKI-1 renal) 3.26 µM | GI50 (HCT-15 colon) 749 nM | GI50 (SNB-19 CNS) 1200 nM | GI50 (LOX IMVI melanoma) 1020 nM | GI50 (K-562 leukemia) 613 nM | GI50 (TK-10 renal) 7.75 µM | GI50 (SK-OV-3 ovarian) 1520 nM | GI50 (U251 CNS) 631 nM | GI50 (HOP-62 NSCLC) 814 nM | GI50 (SK-MEL-28 melanoma) 1120 nM | GI50 (NCI/ADR-RES ovarian) 583 nM | GI50 (A498 renal) 3.5 µM | GI50 (IGROV1 ovarian) 4.16 µM | GI50 (SF-268 CNS) 1400 nM | GI50 (OVCAR-4 ovarian) 3.16 µM | GI50 (ACHN renal) 1250 nM | GI50 (SN12C renal) 4.25 µM | GI50 (UACC-62 melanoma) 880 nM | GI50 (RXF 393 renal) 1210 nM | GI50 (EKVX NSCLC) 6.42 µM | GI50 (MOLT-4 leukemia) 743 nM | GI50 (SW-620 colon) 665 nM | GI50 (DU-145 prostate) 1100 nM | GI50 (NCI-H226 lung) > 16.5 µM | GI50 (HOP-92 NSCLC) 855 nM | GI50 (NCI-H23 lung) 945 nM | GI50 (OVCAR-8 ovarian) 1030 nM | GI50 (NCI-H460 lung) 663 nM | GI50 (MCF7 breast) 762 nM | GI50 (HS 578T breast) 762 nM
5.99 µM: TGI (RXF 393 renal)
1430 nM: TGI (NCI-H522 lung)
> 16.5 µM: TGI (COLO 205 colon) | TGI (BT-549 breast) | TGI (UACC-257 melanoma) | TGI (OVCAR-5 ovarian) | TGI (786-0 renal) | TGI (PC-3 prostate) | TGI (HCC-2998 colon) | TGI (SK-MEL-5 melanoma) | TGI (SR leukemia) | TGI (MALME-3M melanoma) | TGI (M14 melanoma) | TGI (A549 NSCLC) | TGI (RPMI-8226 leukemia) | TGI (HCT-116 colon) | TGI (UO-31 renal) | TGI (HT29 colon) | TGI (MDA-MB-231 breast) | TGI (CCRF-CEM leukemia) | TGI (CAKI-1 renal) | TGI (HCT-15 colon) | TGI (SNB-19 CNS) | TGI (LOX IMVI melanoma) | TGI (K-562 leukemia) | TGI (TK-10 renal) | TGI (SK-OV-3 ovarian) | TGI (HOP-62 NSCLC) | TGI (SK-MEL-28 melanoma) | TGI (IGROV1 ovarian) | TGI (SF-268 CNS) | TGI (OVCAR-4 ovarian) | TGI (ACHN renal) | TGI (SN12C renal) | TGI (UACC-62 melanoma) | TGI (EKVX NSCLC) | TGI (MOLT-4 leukemia) | TGI (SW-620 colon) | TGI (DU-145 prostate) | TGI (NCI-H226 lung) | TGI (HOP-92 NSCLC) | TGI (NCI-H23 lung) | TGI (OVCAR-8 ovarian) | TGI (NCI-H460 lung) | TGI (MCF7 breast) | TGI (HS 578T breast)
2620 nM: TGI (OVCAR-3 ovarian)
active: GI50 (SNB-75 CNS) 406 nM
1720 nM: TGI (SF-539 CNS)
14.6 µM: TGI (A498 renal)
6.84 µM: TGI (NCI/ADR-RES ovarian)
6.05 µM: TGI (U251 CNS)
1100 nM: TGI (HL-60(TB) leukemia)
3.45 µM: TGI (SNB-75 CNS)
